Reference: patent publication US8518412B2, “Partial peptide of lacritin” (Senju Pharmaceutical Co, Ltd., priority 2009, dated 2013)
Non-standard residues stand in square brackets, D forms with d. No end group written: not given here. pGlu = O=C1CC[C@@H](C(=O)O)N1

System: human corneal epithelial cells (HCE-T)
Test: Adhesion of human corneal epithelial cell to extracellular matrix (collagen type IV coated plate)
Type: cell-based
Details: polypeptide 100 μg/mL, 37° C. 25 min
Protocol: An extracellular matrix solution (10 μg/mL, collagen type IV: Becton, Dickinson and Company, catalog No. 354245) was added to a 96 well plate (Iwaki Glass Company, Limited, catalog No. 3860-096). The solution was incubated at 37° C. for 1 hr to coat the plate with the extracellular matrix. After the redundant extracellular matrix solution was removed, 0.1% BSA solution (Sigma-Aldrich Co., catalog No. A3803) was added to block the region not coated with the extracellular matrix. Successively, the BSA solution was removed and the plate was washed twice with PBS, and polypeptides 1-4 (concentration 100 μg/mL) synthesized in Example 1 (Pyr Lac50-83) and Comparative Examples 1-3 (Lac50-83, Pyr Lac50-94, Lac50-94), and negative control polypeptide (Lac24-56, Lac50-65) were added by 50 μl, per well. […]
Thereafter, the cells were fixed with 10% neutral buffered formaldehyde liquid (NACALAI TESQUE, INC., catalog No. 37152-51), and stained with 1% crystal violet staining solution (Sigma-Aldrich Co., catalog No. C3886). The image of the stained cells was uploaded using an inverted system microscope (Olympus Corporation, IX71), and the area of the adhered cells was measured using Image-Pro Plus Ver. […]

Substance | cell adhesion promoting effect (cell adhesion rate against that without addition of polypeptide as 100%)
Pyr Gly Thr Ala Lys Val Thr Ser Ser Arg Gln Glu Leu Asn Pro Leu Lys Ser Ile Val Glu Lys Ser Ile Leu Leu Thr Glu Gln Ala Leu Ala Lys Ala ([pGlu]GTAKVTSSRQELNPLKSIVEKSILLTEQALAKA; listed as Homo sapiens) [polypeptide 1, pyro-modified partial peptide of lacritin] | confirmed to have an activity to promote cell adhesion
Pyr Gly Thr Ala Lys Val Thr Ser Ser Arg Gln Glu Leu Asn Pro Leu Lys Ser Ile Val Glu Lys Ser Ile Leu Leu Thr Glu Gln Ala Leu Ala Lys Ala Gly Lys Gly Met His Gly Gly Val Pro Gly Gly ([pGlu]GTAKVTSSRQELNPLKSIVEKSILLTEQALAKAGKGMHGGVPGG; listed as Homo sapiens) [polypeptide 3] | lowered activity as compared to that of polypeptide before pyro-modification
